The values below come from patent US12122854B2, “Graft copolymer and preparation method and use thereof” (ANHUI AGRICULTURAL UNIVERSITY, priority 2022, dated 2024).

Assay [1] is described as follows: DPPH free radical scavenging rate. It is filed as biochemical. Particulars: 30 min. The protocol: The scavenging rate of EPSF-starch on DPPH free radicals was measured as follows: The N-ethyl-2-pyrrolidinone-substituted flavan-3-ol (EPSF) in Example 1 and EGCG in Comparative Example 1 were uniformly dispersed in methanol separately, obtaining dispersions with mass concentrations of 2 μg/mL, 4 μg/mL, 6 μg/mL, 8 μg/mL, 10 μg/mL and 12 μg/mL. The corn starch and EPSF-starch in Example 1, as well as the EGCG-starch in Comparative Example 1, were uniformly dispersed in methanol to obtain dispersions with mass concentrations of 0.156 mg/mL, 0.313 mg/mL, 0.625 mg/mL, 1.25 mg/mL, and 2.50 mg/mL. 2 mL of the above sample dispersions were pipetted in sequence into test tubes, and 2.0 mL of a DPPH solution (0.2 mmol/L, which was prepared with methanol) was added thereto, respectively. The resulting mixture was shaken well, and reacted at ambient temperature in dark for 30 minutes. The absorbance A1 thereof was then measured at 517 nm. Meanwhile, DPPH solution was replaced with an equal amount of methanol solution, and the absorbance A2 thereof was measured according to the above method. The absorbance A0 of a mixture of 2.0 mL of methanol and 2.0 mL of DPPH solution was measured. Experiments of each group were repeated three times, and the DPPH free radical scavenging rate of EPSF-starch was calculated according to Equation 1.
[formula] • where A0 represents the absorbance of the mixture of methanol and DPPH solution; A1 represents the absorbance of a mixture of the sample dispersion and DPPH free radical solution; and A2 represents the absorbance of a mixture of the sample dispersion and methanol.

A short description of assay [2]: ABTS free radical scavenging rate. It is filed as biochemical. Particulars: 5 min. As for the experimental part: The ABTS free radical scavenging rate of EPSF-starch was measured as follows: 100 mg of ABTS and 34.4 mg of potassium persulfate were dissolved in 25 mL of distilled water. They were shaken well, and stored at ambient temperature in dark for 12-16 hours.
EPSFs in Example 1 and EGCG in Comparative Example 1 were dispersed uniformly in methanol, obtaining dispersions with mass concentrations of 2 μg/mL, 4 μg/mL, 6 μg/mL, 8 μg/mL, 10 μg/mL and 12 μg/mL. The corn starch and EPSF-starch in Example 1, as well as the EGCG-starch in Comparative Example 1, were uniformly dispersed in methanol obtaining dispersions with mass concentrations of 0.156 mg/mL, 0.313 mg/mL, 0.625 mg/mL, 1.25 mg/mL, and 2.50 mg/mL. 1.0 mL of the above sample solutions and 3.0 mL of the ABTS free radical working solution were added to the test tube in sequence, and they were shaken well, and reacted at ambient temperature in dark for 5 minutes. The absorbance A1 thereof was measured at 734 nm. The sample solutions were replaced with methanol and the absorbance A0 thereof was measured according to the above method. EGCG, starch, and EGCG-starch functioned as control groups, and the ABTS free radical scavenging rates thereof were determined according to the above method. Experiment of each group was repeated three times, and the ABTS free radical scavenging rate of each sample was calculated according to Equation 2.
[formula] • where A0 represents the absorbance of a mixture of the sample dispersion and methanol; and A1 represents the absorbance of the sample dispersion and ABTS radical solution.

In the case of epigallocatechin-3-gallate [EGCG], the “DPPH free radical scavenging rate” value is given as 21.57 ± 0.04% in assay [1] (sample concentration 2 μg/ml in methanol); 50.98 ± 0.25% in assay [1] (sample concentration 4 μg/ml in methanol); 67.85 ± 4% in assay [1] (sample concentration 6 μg/ml in methanol); 88.44 ± 0.27% in assay [1] (sample concentration 8 μg/ml in methanol); 85.67 ± 2.01% in assay [1] (sample concentration 10 μg/ml in methanol); 87.39 ± 2.62% in assay [1] (sample concentration 12 μg/ml in methanol). In addition, the “DPPH free radical scavenging rate” value in assay [1] (sample concentration 2.5 mg/ml in methanol) was determined as 90%. In addition, the “ABTS free radical scavenging rate” value worked out at 51.91 ± 2.1% in assay [2] (sample concentration 2 μg/mL in methanol); 78.8 ± 1.73% in assay [2] (sample concentration 4 μg/mL in methanol); 91.49 ± 1.23% in assay [2] (sample concentration 6 μg/mL in methanol); 94.38 ± 2.07% in assay [2] (sample concentration 8 μg/mL in methanol); 95.17 ± 1.8% in assay [2] (sample concentration 10 μg/mL in methanol); 95.24 ± 1.69% in assay [2] (sample concentration 12 μg/mL in methanol).
